Where “and” joins values, the source holds several entries; their conditions need not be identical. Equal entries are not always repeated. ± gives the expanded uncertainty stated by the source.
Legend:
[1] = xn = mol fraction of the nth substance listed; conditions: 101 kPa, Liquid, x2 = 0; for viscosity: Capillary tube (Ostwald / Ubbelohde) method; for mass density: Pycnometric method
[2] = Liquid; for viscosity: Capillary tube (Ostwald / Ubbelohde) method; for mass density: Pycnometric method
[3] = wn = mass fraction of the nth substance listed; conditions: 101 kPa, Liquid, w1 = 0.2; for mass density: Pycnometric method; for viscosity: Capillary tube (Ostwald / Ubbelohde) method

O [water] + Cc1ccncc1
[1]
Conditions | mass density [kg/m3] | viscosity [mPa·s]
298.15 K | – | 0.8903 ± 0.0081
303.15 K | – | 0.7973 ± 0.0074
308.15 K | – | 0.719 ± 0.0067
313.15 K | – | 0.6526 ± 0.0061
318.15 K | – | 0.5972 ± 0.0056
323.15 K | 988 ± 0.5 | 0.5468 ± 0.0052
328.15 K | 985.7 ± 0.5 | 0.5042 ± 0.0048
333.15 K | 983.2 ± 0.6 | 0.4669 ± 0.0045
338.15 K | 980.6 ± 0.6 | 0.4341 ± 0.0042

O [water]
[2], 101 kPa
Conditions | mass density [kg/m3] | viscosity [mPa·s]
298.15 K | – | 0.8903 ± 0.0081
303.15 K | – | 0.7973 ± 0.0074
308.15 K | – | 0.719 ± 0.0067
313.15 K | – | 0.6526 ± 0.0061
318.15 K | – | 0.5972 ± 0.0056
323.15 K | 988 ± 0.5 | 0.5468 ± 0.0052
328.15 K | 985.7 ± 0.5 | 0.5042 ± 0.0048
333.15 K | 983.2 ± 0.6 | 0.4669 ± 0.0045
338.15 K | 980.6 ± 0.6 | 0.4341 ± 0.0042

Cc1ccncc1 [4-methylpyridine]
[2]
Conditions | mass density, 101 kPa | mass density, 101.33 kPa [kg/m3] | viscosity, 101 kPa [mPa·s] | viscosity, 101.33 kPa [mPa·s]
283.15 K | 958.2 ± 0.4 kg/m3 | 958.2 ± 0.4 | – | –
293.15 K | 955.1 ± 0.4 kg/m3 | 955.1 ± 0.5 | – | –
298.15 K | 955.4 ± 0.5 kg/m3 and 951.1 ± 0.5 kg/m3 | 951.1 ± 0.7 | – | 0.8723 ± 0.0078
303.15 K | 951.1 ± 1.1 kg/m3 | – | 0.8175 ± 0.0073 | –
308.15 K | 941.3 ± 1.1 kg/m3 | – | 0.7774 ± 0.0069 | –
313.15 K | 936.6 ± 0.8 kg/m3 | – | 0.7368 ± 0.0067 | –
318.15 K | 932.1 ± 0.7 kg/m3 | – | 0.6855 ± 0.0063 | –
323.15 K | 927.7 ± 0.8 kg/m3 | – | 0.6505 ± 0.0061 | –
328.15 K | 923.2 ± 0.8 kg/m3 | – | 0.5905 ± 0.0058 | –
333.15 K | 918.5 ± 0.8 kg/m3 | – | 0.5329 ± 0.0054 | –
338.15 K | 914 ± 0.8 kg/m3 | – | 0.4815 ± 0.005 | –

O=S(=O)(O)O [sulfuric acid] + O
[3]
Conditions | mass density [kg/m3] | viscosity [mPa·s]
283.15 K | 1145 ± 0.6 | –
293.15 K | 1139.6 ± 0.6 | 1.543 ± 0.014
298.15 K | 1136.4 ± 0.6 | –
303.15 K | 1133.7 ± 0.6 | 1.21 ± 0.011
313.15 K | 1127.8 ± 0.6 | 0.987 ± 0.0089
323.15 K | 1121.9 ± 0.6 | 0.824 ± 0.0074
333.15 K | 1115.7 ± 0.7 | 0.716 ± 0.0064
343.15 K | 1108.9 ± 0.7 | 0.638 ± 0.0057

Reference: the NIST ThermoML archive (doi:10.1021/je8008182)
